Results published in BigSolDB 2.1.

O=P1(C(Nc2ccccc2)c2ccccc2)OCC2(CO1)COP(=O)(C(Nc1ccccc1)c1ccccc1)OC2 (centres undefined)
solubility (mole fraction) (in 1,2-dichloroethane, 283.35 K): 0.000119 | solubility (mole fraction) (in 1,2-dichloroethane, 288.25 K): 0.000127 | solubility (mole fraction) (in 1,2-dichloroethane, 293.3 K): 0.00014 | solubility (mole fraction) (in 1,2-dichloroethane, 297.95 K): 0.000153 | solubility (mole fraction) (in 1,2-dichloroethane, 303.45 K): 0.000163 | solubility (mole fraction) (in 1,2-dichloroethane, 308.35 K): 0.000176 | solubility (mole fraction) (in 1,2-dichloroethane, 313.45 K): 0.00019 | solubility (mole fraction) (in 1,2-dichloroethane, 318.25 K): 0.000208 | solubility (mole fraction) (in 1,2-dichloroethane, 323.45 K): 0.000219 | solubility (mole fraction) (in 1,2-dichloroethane, 327.95 K): 0.000231 | solubility (mole fraction) (in 1,2-dichloroethane, 333.35 K): 0.000249 | solubility (mole fraction) (in 1,2-dichloroethane, 338.15 K): 0.000271 | solubility (mole fraction) (in 1,4-dioxane, 283.15 K): 7.3e-05 | solubility (mole fraction) (in 1,4-dioxane, 288.35 K): 8.4e-05 | solubility (mole fraction) (in 1,4-dioxane, 293.25 K): 0.0001 | solubility (mole fraction) (in 1,4-dioxane, 298.35 K): 0.000121 | solubility (mole fraction) (in 1,4-dioxane, 303.15 K): 0.000146 | solubility (mole fraction) (in 1,4-dioxane, 308.25 K): 0.000176 | solubility (mole fraction) (in 1,4-dioxane, 313.45 K): 0.000202 | solubility (mole fraction) (in 1,4-dioxane, 318.65 K): 0.000248 | solubility (mole fraction) (in 1,4-dioxane, 323.55 K): 0.000286 | solubility (mole fraction) (in 1,4-dioxane, 328.25 K): 0.000332 | solubility (mole fraction) (in 1,4-dioxane, 333.2 K): 0.000417 | solubility (mole fraction) (in 1,4-dioxane, 338.3 K): 0.000479 | solubility (mole fraction) (in THF, 288.45 K): 0.00381 | solubility (mole fraction) (in THF, 293.25 K): 0.00428 | solubility (mole fraction) (in THF, 298.15 K): 0.00481 | solubility (mole fraction) (in THF, 303.15 K): 0.0053 | solubility (mole fraction) (in THF, 308.65 K): 0.00588 | solubility (mole fraction) (in THF, 313.45 K): 0.00645 | solubility (mole fraction) (in THF, 318.45 K): 0.00711 | solubility (mole fraction) (in THF, 323.55 K): 0.00788 | solubility (mole fraction) (in THF, 328.35 K): 0.00862 | solubility (mole fraction) (in THF, 333.25 K): 0.01 | solubility (mole fraction) (in THF, 338.15 K): 0.0108 | solubility (mole fraction) (in acetic acid, 298.25 K): 0.000115 | solubility (mole fraction) (in acetic acid, 303.65 K): 0.000156 | solubility (mole fraction) (in acetic acid, 308.15 K): 0.000194 | solubility (mole fraction) (in acetic acid, 313.25 K): 0.000233 | solubility (mole fraction) (in acetic acid, 318.25 K): 0.000288 | solubility (mole fraction) (in acetic acid, 323.15 K): 0.000326 | solubility (mole fraction) (in acetic acid, 328.25 K): 0.000348 | solubility (mole fraction) (in acetic acid, 333.45 K): 0.000406 | solubility (mole fraction) (in acetic acid, 338.15 K): 0.000444 | solubility (mole fraction) (in acetone, 283.35 K): 9.1e-05 | solubility (mole fraction) (in acetone, 288.25 K): 0.000101 | solubility (mole fraction) (in acetone, 293.25 K): 0.00011 | solubility (mole fraction) (in acetone, 298.3 K): 0.000123 | solubility (mole fraction) (in acetone, 303.35 K): 0.000136 | solubility (mole fraction) (in acetone, 308.45 K): 0.000151 | solubility (mole fraction) (in acetone, 313.25 K): 0.000164 | solubility (mole fraction) (in acetone, 318.55 K): 0.000183 | solubility (mole fraction) (in acetone, 323.25 K): 0.000205 | solubility (mole fraction) (in acetone, 328.35 K): 0.000221 | solubility (mole fraction) (in acetonitrile, 288.3 K): 3.6e-05 | solubility (mole fraction) (in acetonitrile, 293.2 K): 4.5e-05 | solubility (mole fraction) (in acetonitrile, 298.25 K): 5.5e-05 | solubility (mole fraction) (in acetonitrile, 303.15 K): 6.1e-05 | solubility (mole fraction) (in acetonitrile, 308.25 K): 7.6e-05 | solubility (mole fraction) (in acetonitrile, 313.2 K): 8.7e-05 | solubility (mole fraction) (in acetonitrile, 317.95 K): 9.8e-05 | solubility (mole fraction) (in acetonitrile, 323.55 K): 0.000121 | solubility (mole fraction) (in acetonitrile, 328.45 K): 0.000146 | solubility (mole fraction) (in acetonitrile, 333.15 K): 0.000169 | solubility (mole fraction) (in acetonitrile, 338.25 K): 0.000194 | solubility (mole fraction) (in benzene, 283.25 K): 3.1e-05 | solubility (mole fraction) (in benzene, 288.35 K): 4.3e-05 | solubility (mole fraction) (in benzene, 293.15 K): 6.4e-05 | solubility (mole fraction) (in benzene, 298.45 K): 8.2e-05 | solubility (mole fraction) (in benzene, 303.35 K): 9.8e-05 | solubility (mole fraction) (in benzene, 308.45 K): 0.000123 | solubility (mole fraction) (in benzene, 313.25 K): 0.000145 | solubility (mole fraction) (in benzene, 318.3 K): 0.000178 | solubility (mole fraction) (in benzene, 323.35 K): 0.000199 | solubility (mole fraction) (in benzene, 328.25 K): 0.000218 | solubility (mole fraction) (in benzene, 333.15 K): 0.000239 | solubility (mole fraction) (in benzene, 338.35 K): 0.000266 | solubility (mole fraction) (in dichloromethane, 283.25 K): 0.000164 | solubility (mole fraction) (in dichloromethane, 288.3 K): 0.000202 | solubility (mole fraction) (in dichloromethane, 293.35 K): 0.000268 | solubility (mole fraction) (in dichloromethane, 298.25 K): 0.000308 | solubility (mole fraction) (in dichloromethane, 303.35 K): 0.000342 | solubility (mole fraction) (in dichloromethane, 308.15 K): 0.000388 | solubility (mole fraction) (in dichloromethane, 313.25 K): 0.000423 | solubility (mole fraction) (in diethyl ether, 283.35 K): 5.5e-05 | solubility (mole fraction) (in diethyl ether, 288.15 K): 8.6e-05 | solubility (mole fraction) (in diethyl ether, 292.95 K): 0.000126 | solubility (mole fraction) (in diethyl ether, 298.65 K): 0.000213 | solubility (mole fraction) (in diethyl ether, 303.25 K): 0.000299 | solubility (mole fraction) (in ethanol, 288.25 K): 4e-05 | solubility (mole fraction) (in ethanol, 293.15 K): 5e-05 | solubility (mole fraction) (in ethanol, 303.25 K): 7.4e-05 | solubility (mole fraction) (in ethanol, 308.55 K): 9e-05 | solubility (mole fraction) (in ethanol, 313.45 K): 0.000113 | solubility (mole fraction) (in ethanol, 317.85 K): 0.000141 | solubility (mole fraction) (in ethanol, 323.25 K): 0.00017 | solubility (mole fraction) (in ethanol, 328.25 K): 0.0002 | solubility (mole fraction) (in ethanol, 333.25 K): 0.000243 | solubility (mole fraction) (in ethanol, 338.25 K): 0.000285 | solubility (mole fraction) (in ethanol, 343.15 K): 0.00036 | solubility (mole fraction) (in isopropanol, 283.45 K): 0.000107 | solubility (mole fraction) (in isopropanol, 287.95 K): 0.000131 | solubility (mole fraction) (in isopropanol, 293.45 K): 0.000156 | solubility (mole fraction) (in isopropanol, 298.15 K): 0.000176 | solubility (mole fraction) (in isopropanol, 303.25 K): 0.000209 | solubility (mole fraction) (in isopropanol, 308.15 K): 0.000234 | solubility (mole fraction) (in isopropanol, 313.25 K): 0.000256 | solubility (mole fraction) (in isopropanol, 318.15 K): 0.000289 | solubility (mole fraction) (in isopropanol, 323.65 K): 0.000312 | solubility (mole fraction) (in isopropanol, 328.55 K): 0.000348 | solubility (mole fraction) (in isopropanol, 333.3 K): 0.000393 | solubility (mole fraction) (in isopropanol, 338.5 K): 0.000414 | solubility (mole fraction) (in toluene, 283.15 K): 0.000765 | solubility (mole fraction) (in toluene, 288.25 K): 0.00117 | solubility (mole fraction) (in toluene, 293.25 K): 0.0015 | solubility (mole fraction) (in toluene, 298.45 K): 0.00199 | solubility (mole fraction) (in toluene, 303.15 K): 0.00238 | solubility (mole fraction) (in toluene, 308.15 K): 0.00287 | solubility (mole fraction) (in toluene, 313.45 K): 0.00344 | solubility (mole fraction) (in toluene, 318.65 K): 0.00388 | solubility (mole fraction) (in toluene, 323.25 K): 0.00449 | solubility (mole fraction) (in toluene, 328.25 K): 0.00494 | solubility (mole fraction) (in toluene, 333.25 K): 0.00542 | solubility (mole fraction) (in toluene, 338.25 K): 0.00614
